Results: patent publication US20250313572A1, “MACROCYCLIC MCL-1 INHIBITORS AND METHODS OF USE” (AbbVie Inc., priority 2017, published 2025)
Read-outs that look alike come from different tables or passages of the source.

Legend:
[1] = test system: NCI-H929 human multiple myeloma tumor cell line; assay: NCI-H929 cell viability assay (CellTiter-Glo, 24 hours); assay type: cell-based; conditions: Homo sapiens, NCI-H929, 24 h, read-out: H929 Viability IC50 (μM, 10% FBS), 10% FBS, 24 hours of compound treatment
Method: Each concentration was tested in duplicate at least 3 independent times. A luminescent signal proportional to the number of viable cells following 24 hours of compound treatment was determined using the CellTiter-Glo® Luminescent Cell Viability Assay according to the manufacturer's recommendations (Promega Corp., Madison, WI). The plates were read in a Perkin Elmer Envision using a Luminescence protocol. To generate dose response curves the data is normalized to percent viability by setting the averages of the staurosporine (10 μM) and DMSO only control wells to 0% and 100% viability respectively.

[2] = test system: AMO-1 human multiple myeloma tumor cell line; assay: AMO-1 cell viability assay (CellTiter-Glo, 24 hours); assay type: cell-based; conditions: Homo sapiens, AMO1, 24 h, read-out: AMO-1 Viability IC50 (μM, 10% FBS), 10% FBS, 24 hours of compound treatment
[3] = biological target: GST-MCL-1 (Homo sapiens, UniProt Q07820); assay: TR-FRET MCL-1 binding assay (competition with probe F-Bak)
Chain of GST-MCL-1 (Q07820 whole entry): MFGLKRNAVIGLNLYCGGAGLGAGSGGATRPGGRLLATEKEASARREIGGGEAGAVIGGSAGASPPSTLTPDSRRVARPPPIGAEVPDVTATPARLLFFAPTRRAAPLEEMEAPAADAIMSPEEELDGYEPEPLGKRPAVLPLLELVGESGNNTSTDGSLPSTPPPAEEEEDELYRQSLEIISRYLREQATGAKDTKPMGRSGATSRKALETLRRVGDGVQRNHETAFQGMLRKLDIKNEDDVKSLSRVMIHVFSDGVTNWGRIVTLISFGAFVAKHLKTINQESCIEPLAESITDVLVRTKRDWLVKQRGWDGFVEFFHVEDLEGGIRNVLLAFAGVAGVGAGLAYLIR
Outline: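 Test compounds, 11 three-fold dilutions from 25 μM final, incubated 2 hours at room temperature with GST-MCL-1, F-Bak probe and Tb-anti-GST antibody. TR-FRET read at 340/35 nm excitation with 520/525 and 495/510 nm emission. Run without human serum and with 10% HS.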

[4] = MCL-1 Binding Ki (nM, 10% HS), in the presence of 10% HS (human serum)
[5] = without HS, read-out: MCL-1 Binding Ki

SMILES | IC50 [1] [µM] | IC50 [2] [µM] | Ki [3, 4] [nM] | Ki [3, 5] [nM]
Cc1c(Cl)c2c(Cl)c(C)c1-c1c(-c3ccc(F)cc3)sc3ncnc(c13)O[C@@H](C(=O)O)Cc1cc(ccc1OCc1ccnc(-c3ccc(CCC(=O)O)cc3)n1)OC[C@@H](CN1CCN(C)CC1)O2 [Example 20, (7R,16R)-10-({2-[4-(2-carboxyethyl)phenyl]pyrimidin-4-yl}methoxy)-19,23-dichloro-1-(4-fluorophenyl)-20,22-dimethyl-16-[(4-methylpiperazin-1-yl)methyl]-7,8,15,16-tetrahydro-18,21-etheno-13,9-(metheno)-6,14,17-trioxa-2-thia-3,5-diazacyclononadeca[1,2,3-cd]indene-7-carboxylic Acid] | 0.00804 | 0.00425 | 0.165 | 0.007
Cc1c(Cl)c2c(Cl)c(C)c1-c1c(-c3ccc(F)cc3)sc3ncnc(c13)O[C@@H](C(=O)O)Cc1cc(ccc1OCc1ccnc(-c3ccc(OC[C@H](O)CO)cc3)n1)OC[C@@H](CN1CCN(C)CC1)O2 [Example 22, (7R,16R)-19,23-dichloro-10-[(2-{4-[(2R)-2,3-dihydroxypropoxy]phenyl}pyrimidin-4-yl)methoxy]-1-(4-fluorophenyl)-20,22-dimethyl-16-[(4-methylpiperazin-1-yl)methyl]-7,8,15,16-tetrahydro-18,21-etheno-13,9-(metheno)-6,14,17-trioxa-2-thia-3,5-diazacyclononadeca[1,2,3-cd]indene-7-carboxylic Acid] | 0.0018 | 0.00133 | 0.214 | 0.015
Cc1c(Cl)c2c(Cl)c(C)c1-c1c(-c3ccc(F)cc3)sc3ncnc(c13)O[C@@H](C(=O)O)Cc1cc(ccc1OCc1ccnc(-c3ccccc3OC[C@H](O)CO)n1)OC[C@@H](CN1CCN(C)CC1)O2 [Example 23, (7R,16R)-19,23-dichloro-10-[(2-{2-[(2R)-2,3-dihydroxypropoxy]phenyl}pyrimidin-4-yl)methoxy]-1-(4-fluorophenyl)-20,22-dimethyl-16-[(4-methylpiperazin-1-yl)methyl]-7,8,15,16-tetrahydro-18,21-etheno-13,9-(metheno)-6,14,17-trioxa-2-thia-3,5-diazacyclononadeca[1,2,3-cd]indene-7-carboxylic Acid] | 0.00389 | 0.00222 | 0.238 | 0.018
Cc1c(Cl)c2c(Cl)c(C)c1-c1c(-c3ccc(F)cc3)sc3ncnc(c13)O[C@@H](C(=O)O)Cc1cc(ccc1OCc1ccnc(N3CCP(C)(=O)CC3)n1)OC[C@@H](CN1CCN(C)CC1)O2 [Example 25, (7R,16R)-19,23-dichloro-1-(4-fluorophenyl)-20,22-dimethyl-10-{[2-(4-methyl-4-oxo-1,4λ^5-azaphosphinan-1-yl)pyrimidin-4-yl]methoxy}-16-[(4-methylpiperazin-1-yl)methyl]-7,8,15,16-tetrahydro-18,21-etheno-13,9-(metheno)-6,14,17-trioxa-2-thia-3,5-diazacyclononadeca[1,2,3-cd]indene-7-carboxylic Acid] | 0.0808 | 0.0727 | 5.7 | 0.844
Cc1c(Cl)c2c(Cl)c(C)c1-c1c(-c3ccc(F)cc3)sc3ncnc(c13)O[C@@H](C(=O)O)Cc1cc(ccc1OCc1ccnc(-c3ccccc3S(C)(=N)=O)n1)OCC(CN1CCN(C)CC1)O2 (stereo partly drawn) [Example 26, (7R,16R)-19,23-dichloro-1-(4-fluorophenyl)-10-({2-[2-(S-methanesulfonimidoyl)phenyl]pyrimidin-4-yl}methoxy)-20,22-dimethyl-16-[(4-methylpiperazin-1-yl)methyl]-7,8,15,16-tetrahydro-18,21-etheno-13,9-(metheno)-6,14,17-trioxa-2-thia-3,5-diazacyclononadeca[1,2,3-cd]indene-7-carboxylic Acid] | 0.00289 | 0.00112 | 0.11 | 0.021
Cc1c2ccc(c1Cl)O[C@H](CN1CCN(C)CC1)COc1ccc(OCc3ccnc(-c4cccc(=O)n4C)n3)c(c1)C[C@H](C(=O)O)Oc1ncnc3sc(-c4ccc(F)cc4)c-2c13 [Example 28, (7R,16R)-19-chloro-1-(4-fluorophenyl)-20-methyl-10-{[2-(1-methyl-6-oxo-1,6-dihydropyridin-2-yl)pyrimidin-4-yl]methoxy}-16-[(4-methylpiperazin-1-yl)methyl]-7,8,15,16-tetrahydro-18,21-etheno-13,9-(metheno)-6,14,17-trioxa-2-thia-3,5-diazacyclononadeca[1,2,3-cd]indene-7-carboxylic Acid] | 0.00583 | 0.00269 | 0.027 | 0.021
COCCOCCOCCOCC1(c2nccc(COc3ccc4cc3C[C@H](C(=O)O)Oc3ncnc5sc(-c6ccc(F)cc6)c(c35)-c3c(C)c(Cl)c(c(Cl)c3C)O[C@H](CN3CCN(C)CC3)CO4)n2)CC1 [Example 29, (7R,16R)-19,23-dichloro-1-(4-fluorophenyl)-20,22-dimethyl-16-[(4-methylpiperazin-1-yl)methyl]-10-({2-[1-(2,5,8,11-tetraoxadodecan-1-yl)cyclopropyl]pyrimidin-4-yl}methoxy)-7,8,15,16-tetrahydro-18,21-etheno-13,9-(metheno)-6,14,17-trioxa-2-thia-3,5-diazacyclononadeca[1,2,3-cd]indene-7-carboxylic Acid] | 0.000942 | 0.000894 | 1.21 | 0.204
Cc1c(Cl)c2c(Cl)c(C)c1-c1c(-c3ccc(F)cc3)sc3ncnc(c13)O[C@@H](C(=O)O)Cc1cc(ccc1OCc1ccnc(-c3ccc(S(C)(=N)=O)cc3)n1)OC[C@@H](CN1CCN(C)CC1)O2 (stereo partly drawn) [Example 30, (7R,16R)-19,23-dichloro-1-(4-fluorophenyl)-10-({2-[4-(S-methanesulfonimidoyl)phenyl]pyrimidin-4-yl}methoxy)-20,22-dimethyl-16-[(4-methylpiperazin-1-yl)methyl]-7,8,15,16-tetrahydro-18,21-etheno-13,9-(metheno)-6,14,17-trioxa-2-thia-3,5-diazacyclononadeca[1,2,3-cd]indene-7-carboxylic Acid] | 0.00356 | 0.00277 | 0.252 | 0.033
Cc1c(Cl)c2c(Cl)c(C)c1-c1c(-c3ccc(F)cc3)sc3ncnc(c13)O[C@@H](C(=O)O)Cc1cc(ccc1OCc1ccnc([C@H]3CC[C@@H](CC(=O)O)CC3)n1)OC[C@@H](CN1CCN(C)CC1)O2 [Example 31, (7R,16R)-10-({2-[(1 s,4s)-4-(carboxymethyl)cyclohexyl]pyrimidin-4-yl}methoxy)-19,23-dichloro-1-(4-fluorophenyl)-20,22-dimethyl-16-[(4-methylpiperazin-1-yl)methyl]-7,8,15,16-tetrahydro-18,21-etheno-13,9-(metheno)-6,14,17-trioxa-2-thia-3,5-diazacyclononadeca[1,2,3-cd]indene-7-carboxylic Acid] | 0.0133 | 0.00743 | 0.049 | 0.004
Cc1c(Cl)c2c(Cl)c(C)c1-c1c(-c3ccc(F)cc3)sc3ncnc(c13)O[C@@H](C(=O)O)Cc1cc(ccc1OCc1ccnc([C@H]3CC[C@H](CC(=O)O)CC3)n1)OC[C@@H](CN1CCN(C)CC1)O2 [Example 32, (7R,16R)-10-({2-[(1r,4r)-4-(carboxymethyl)cyclohexyl]pyrimidin-4-yl}methoxy)-19,23-dichloro-1-(4-fluorophenyl)-20,22-dimethyl-16-[(4-methylpiperazin-1-yl)methyl]-7,8,15,16-tetrahydro-18,21-etheno-13,9-(metheno)-6,14,17-trioxa-2-thia-3,5-diazacyclononadeca[1,2,3-cd]indene-7-carboxylic Acid] | 0.0143 | 0.00878 | 0.034 | 0.003
Cc1c(Cl)c2c(Cl)c(C)c1-c1c(-c3ccc(F)cc3)sc3ncnc(c13)O[C@@H](C(=O)O)Cc1cc(ccc1OCc1ccnc(N3CC4C(C3)C4(F)F)n1)OC[C@@H](CN1CCN(C)CC1)O2 (stereo partly drawn) [Example 33, (7R,16R)-19,23-dichloro-10-{[2-(6,6-difluoro-3-azabicyclo[3.1.0]hexan-3-yl)pyrimidin-4-yl]methoxy}-1-(4-fluorophenyl)-20,22-dimethyl-16-[(4-methylpiperazin-1-yl)methyl]-7,8,15,16-tetrahydro-18,21-etheno-13,9-(metheno)-6,14,17-trioxa-2-thia-3,5-diazacyclononadeca[1,2,3-cd]indene-7-carboxylic Acid] | 0.00123 | 0.000282 | 2.23 | 0.088
Cc1c(Cl)c2c(Cl)c(C)c1-c1c(-c3ccc(F)cc3)sc3ncnc(c13)O[C@@H](C(=O)O)Cc1cc(ccc1OCc1ccnc(C3=CCS(=O)(=O)CC3)n1)OC[C@@H](CN1CCN(C)CC1)O2 [Example 34, (7R,16R)-19,23-dichloro-10-{[2-(1,1-dioxo-1,2,3,6-tetrahydro-1λ^6-thiopyran-4-yl)pyrimidin-4-yl]methoxy}-1-(4-fluorophenyl)-20,22-dimethyl-16-[(4-methylpiperazin-1-yl)methyl]-7,8,15,16-tetrahydro-18,21-etheno-13,9-(metheno)-6,14,17-trioxa-2-thia-3,5-diazacyclononadeca[1,2,3-cd]indene-7-carboxylic Acid] | 0.00242 | 0.00123 | 0.276 | 0.016
